Biological target: human Cav2.2 (Homo sapiens, UniProt Q00975)
Assay: Assessment of calcium channel activity using FLIPR (Ca2+ influx in IMR32 cells)
Type: cell-based
Settings: for inhibition at 10 µM: IMR-32, @ 10 μM, 3 minute pre-incubation (*), read-out: percent inhibition; for IC50: 60 minute pre-incubation with compound, 2 μM nifedipine, depolarized with 80 mM KCl
Method in brief: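 IMR32 neuroblastoma cells seeded at 1-1.2×10^5 cells/well and grown 48 h at 37 °C before FLIPR Ca2+ influx read. Percent inhibition at each concentration vs no-inhibitor activity; IC50 by non-linear sigmoidal dose-response fit.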

Sequence of human Cav2.2 (Q00975 whole entry): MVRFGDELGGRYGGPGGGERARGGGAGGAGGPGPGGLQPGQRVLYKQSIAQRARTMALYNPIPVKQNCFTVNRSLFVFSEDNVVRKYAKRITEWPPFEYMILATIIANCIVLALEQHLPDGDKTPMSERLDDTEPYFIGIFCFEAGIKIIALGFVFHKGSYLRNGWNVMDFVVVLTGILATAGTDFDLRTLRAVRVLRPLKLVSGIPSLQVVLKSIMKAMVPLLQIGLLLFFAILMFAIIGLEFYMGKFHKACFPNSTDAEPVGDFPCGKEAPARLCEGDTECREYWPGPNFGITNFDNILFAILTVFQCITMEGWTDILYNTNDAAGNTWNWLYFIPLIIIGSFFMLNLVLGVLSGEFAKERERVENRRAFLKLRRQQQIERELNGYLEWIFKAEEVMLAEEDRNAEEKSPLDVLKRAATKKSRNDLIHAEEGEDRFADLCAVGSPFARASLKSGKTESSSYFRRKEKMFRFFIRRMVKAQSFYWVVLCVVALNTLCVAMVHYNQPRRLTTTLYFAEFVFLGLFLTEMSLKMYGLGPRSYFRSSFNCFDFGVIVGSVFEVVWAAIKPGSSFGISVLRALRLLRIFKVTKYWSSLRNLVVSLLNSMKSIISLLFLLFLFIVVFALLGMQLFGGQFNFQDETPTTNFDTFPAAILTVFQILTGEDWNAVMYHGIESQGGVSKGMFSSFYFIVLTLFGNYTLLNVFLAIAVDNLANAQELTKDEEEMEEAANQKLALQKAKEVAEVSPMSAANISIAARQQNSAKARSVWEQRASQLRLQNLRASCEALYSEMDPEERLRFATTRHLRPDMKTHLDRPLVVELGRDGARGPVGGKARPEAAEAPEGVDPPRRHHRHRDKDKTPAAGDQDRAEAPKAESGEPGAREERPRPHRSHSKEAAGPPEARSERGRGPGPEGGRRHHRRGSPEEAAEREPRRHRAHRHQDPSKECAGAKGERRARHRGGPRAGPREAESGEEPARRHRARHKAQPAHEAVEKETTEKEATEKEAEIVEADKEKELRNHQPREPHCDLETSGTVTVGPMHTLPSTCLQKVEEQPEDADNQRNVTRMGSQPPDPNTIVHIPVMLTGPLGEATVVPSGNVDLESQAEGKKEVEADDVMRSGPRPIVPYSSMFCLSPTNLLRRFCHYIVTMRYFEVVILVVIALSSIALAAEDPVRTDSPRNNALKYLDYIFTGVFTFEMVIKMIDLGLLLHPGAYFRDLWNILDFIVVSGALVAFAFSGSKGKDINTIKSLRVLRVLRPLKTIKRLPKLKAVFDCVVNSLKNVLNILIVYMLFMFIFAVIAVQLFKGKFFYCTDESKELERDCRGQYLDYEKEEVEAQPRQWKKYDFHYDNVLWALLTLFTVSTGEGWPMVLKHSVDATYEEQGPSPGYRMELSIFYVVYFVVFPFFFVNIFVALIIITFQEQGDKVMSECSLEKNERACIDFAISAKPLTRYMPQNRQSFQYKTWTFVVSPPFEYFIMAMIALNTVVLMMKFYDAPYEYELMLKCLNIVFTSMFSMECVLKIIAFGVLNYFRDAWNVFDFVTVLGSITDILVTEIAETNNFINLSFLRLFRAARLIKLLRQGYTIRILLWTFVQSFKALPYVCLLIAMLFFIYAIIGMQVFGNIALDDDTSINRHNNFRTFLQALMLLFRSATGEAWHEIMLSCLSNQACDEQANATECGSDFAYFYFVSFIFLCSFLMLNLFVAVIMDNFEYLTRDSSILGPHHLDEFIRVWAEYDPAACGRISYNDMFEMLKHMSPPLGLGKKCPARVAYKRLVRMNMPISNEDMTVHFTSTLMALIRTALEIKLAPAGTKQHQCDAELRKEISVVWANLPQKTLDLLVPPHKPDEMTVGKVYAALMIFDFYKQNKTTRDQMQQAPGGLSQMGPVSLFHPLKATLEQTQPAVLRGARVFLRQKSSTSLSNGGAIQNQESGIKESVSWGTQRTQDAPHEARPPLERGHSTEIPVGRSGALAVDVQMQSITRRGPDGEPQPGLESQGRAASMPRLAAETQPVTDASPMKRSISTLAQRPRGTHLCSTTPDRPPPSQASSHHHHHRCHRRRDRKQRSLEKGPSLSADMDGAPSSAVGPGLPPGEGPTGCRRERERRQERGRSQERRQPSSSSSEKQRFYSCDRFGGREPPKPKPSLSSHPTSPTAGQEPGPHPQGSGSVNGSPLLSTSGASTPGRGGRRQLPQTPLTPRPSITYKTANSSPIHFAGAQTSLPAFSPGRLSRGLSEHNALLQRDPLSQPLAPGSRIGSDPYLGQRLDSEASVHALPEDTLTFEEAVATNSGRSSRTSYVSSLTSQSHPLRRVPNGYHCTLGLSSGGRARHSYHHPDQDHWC
Sequence of human Cav2.2 (P54289 25-946 partner limits assumed): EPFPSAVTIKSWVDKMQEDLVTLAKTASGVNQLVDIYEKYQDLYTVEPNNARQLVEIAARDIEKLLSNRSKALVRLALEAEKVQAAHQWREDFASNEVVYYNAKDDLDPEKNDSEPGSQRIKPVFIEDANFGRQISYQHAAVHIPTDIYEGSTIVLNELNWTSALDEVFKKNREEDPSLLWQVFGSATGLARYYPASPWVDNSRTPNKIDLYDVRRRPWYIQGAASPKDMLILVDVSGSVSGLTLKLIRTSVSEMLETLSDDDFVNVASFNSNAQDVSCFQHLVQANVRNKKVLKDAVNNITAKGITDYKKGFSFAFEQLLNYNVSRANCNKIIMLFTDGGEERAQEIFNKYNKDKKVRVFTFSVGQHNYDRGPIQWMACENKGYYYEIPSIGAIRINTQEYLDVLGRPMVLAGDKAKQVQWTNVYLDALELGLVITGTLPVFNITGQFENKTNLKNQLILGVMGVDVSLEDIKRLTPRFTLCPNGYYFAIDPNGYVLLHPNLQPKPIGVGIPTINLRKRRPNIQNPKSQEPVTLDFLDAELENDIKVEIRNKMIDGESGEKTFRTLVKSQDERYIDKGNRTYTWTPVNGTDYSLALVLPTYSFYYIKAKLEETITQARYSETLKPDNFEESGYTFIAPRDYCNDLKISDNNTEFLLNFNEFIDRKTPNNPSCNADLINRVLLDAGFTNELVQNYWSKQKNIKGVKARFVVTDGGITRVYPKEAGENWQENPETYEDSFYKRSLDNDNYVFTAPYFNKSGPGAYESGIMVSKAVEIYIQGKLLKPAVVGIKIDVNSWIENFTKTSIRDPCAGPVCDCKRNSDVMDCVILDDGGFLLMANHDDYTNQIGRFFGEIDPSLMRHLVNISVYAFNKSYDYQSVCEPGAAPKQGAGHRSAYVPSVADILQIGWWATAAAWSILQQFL
Sequence of human Cav2.2 (P54289 947-1103 partner limits assumed): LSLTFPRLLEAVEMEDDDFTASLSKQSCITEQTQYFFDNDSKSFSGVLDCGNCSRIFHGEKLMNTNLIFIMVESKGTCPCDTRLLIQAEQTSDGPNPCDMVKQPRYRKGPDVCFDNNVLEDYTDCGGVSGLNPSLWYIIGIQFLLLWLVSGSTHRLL
Sequence of human Cav2.2 (P54284 whole entry partner): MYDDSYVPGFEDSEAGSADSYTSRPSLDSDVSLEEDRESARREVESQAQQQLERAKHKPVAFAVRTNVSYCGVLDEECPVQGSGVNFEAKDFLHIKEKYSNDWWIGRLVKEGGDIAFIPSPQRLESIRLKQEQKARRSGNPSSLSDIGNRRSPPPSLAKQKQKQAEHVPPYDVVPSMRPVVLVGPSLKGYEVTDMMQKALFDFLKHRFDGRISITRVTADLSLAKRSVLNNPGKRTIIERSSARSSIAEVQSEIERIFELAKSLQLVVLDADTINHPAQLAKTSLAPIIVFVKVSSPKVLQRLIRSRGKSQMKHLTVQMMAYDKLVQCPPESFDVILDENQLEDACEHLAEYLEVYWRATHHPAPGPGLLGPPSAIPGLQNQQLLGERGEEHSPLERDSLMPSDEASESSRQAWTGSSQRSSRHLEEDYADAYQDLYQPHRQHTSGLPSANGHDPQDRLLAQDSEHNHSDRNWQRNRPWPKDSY

| Structure (SMILES) | inhibition at 10 µM | IC50 |
| --- | --- | --- |
| CC(C)C(C(=O)N[C@H]1CC[C@@H]2CN(C(=O)c3ccccc3)C[C@@H]21)c1ccccc1 (stereo partly drawn) [Example 218, N-[(3aR,4S,6aS)-2-benzoyloctahydrocyclopenta[c]pyrrol-4-yl]-3-methyl-2-phenylbutanamide] | 56% | – |
| CC(C)N(C(=O)N[C@H]1CC[C@@H]2CN(Cc3ccccc3)C[C@@H]21)c1ccccc1 [Example 219, N′-[(3aR,4S,6aS)-2-benzyloctahydrocyclopenta[c]pyrrol-4-yl]-N-isopropyl-N-phenylurea] | 63% | – |
| CC(C)C[C@H](NC(=O)OC(C)(C)C)C(=O)N[C@H]1CC[C@@H]2CN(Cc3ccccc3)C[C@@H]21 [Example 221, tert-butyl(S)-1-((3aR,4S,6aS)-2-benzyloctahydrocyclopenta[c]pyrrol-4-ylamino)-4-methyl-1-oxopentan-2-ylcarbamate] | – | 3.93 µM |
| CCN(C(=O)OC(C)(C)C)[C@@H](CC(C)C)C(=O)N[C@H]1CC[C@@H]2CN(Cc3ccccc3)C[C@@H]21 [Example 223, tert-butyl(S)-1-((3aR,4S,6aS)-2-benzyloctahydrocyclopenta[c]pyrrol-4-ylamino)-4-methyl-1-oxopentan-2-yl(ethyl)carbamate] | – | 2.06 µM |
| CC[C@H](C)[C@@H](C(=O)N[C@H]1CC[C@@H]2CN(Cc3ccccc3)C[C@@H]21)N(C)C(=O)OC(C)(C)C [Example 224, tert-butyl(2S,3S)-1-((3aR,4S,6aS)-2-benzyloctahydrocyclopenta[c]pyrrol-4-ylamino)-3-methyl-1-oxopentan-2-yl(methyl)carbamate] | – | 4.64 µM |
| CCCC[C@@H](C(=O)N[C@H]1CC[C@@H]2CN(Cc3ccccc3)C[C@@H]21)N(C)C(=O)OC(C)(C)C [Example 227, tert-butyl(S)-1-((3aR,4S,6aS)-2-benzyloctahydrocyclopenta[c]pyrrol-4-ylamino)-1-oxohexan-2-yl(methyl)carbamate] | – | 3.17 µM |
| CC(C)[C@@H](C(=O)N[C@@H]1CC[C@H]2CN(Cc3ccccc3)C[C@H]21)N(C)C(=O)OC(C)(C)C [Example 232, tert-butyl(S)-1-((3aS,4R,6aR)-2-benzyloctahydrocyclopenta[c]pyrrol-4-ylamino)-3-methyl-1-oxobutan-2-yl(methyl)carbamate] | – | 3.6 µM |
| CC(C)C(C(=O)N[C@@H]1CC[C@H]2CN(Cc3ccccc3)C[C@H]21)C(C)C [Example 235, N-[(3aS,4R,6aR)-2-benzyloctahydrocyclopenta[c]pyrrol-4-yl]-2-isopropyl-3-methylbutanamide] | – | 14.2 µM |
| CCC[C@@H](C(=O)N[C@H]1CC[C@H]2CN(Cc3ccccc3)C[C@H]21)N(C)C(=O)OC(C)(C)C [Example 238, tert-butyl(S)-1-((3aS,4S,6aR)-2-benzyloctahydrocyclopenta[c]pyrrol-4-ylamino)-1-oxopentan-2-yl(methyl)carbamate] | – | 5.73 µM |
| CCC[C@@H](C(=O)N[C@@H]1CC[C@@H]2CN(Cc3ccccc3)C[C@@H]21)N(C)C(=O)OC(C)(C)C [Example 240, tert-butyl(S)-1-((3aR,4R,6aS)-2-benzyloctahydrocyclopenta[c]pyrrol-4-ylamino)-1-oxopentan-2-yl(methyl)carbamate] | – | 2.67 µM |
| CC(C)C[C@H](NCC(C)(C)C)C(=O)N[C@H]1CC[C@@H]2CN(S(=O)(=O)c3cccc(C(F)(F)F)c3)C[C@@H]21 [Example 252, N^2-neopentyl-N^1-((3aR,4S,6aS)-2-{[3-(trifluoromethyl)phenyl]sulfonyl}octahydrocyclopenta[c]pyrrol-4-yl)-L-leucinamide] | – | 0.64 µM |
| CC(C)C[C@H](NCC(C)(C)C)C(=O)N[C@@H]1CC[C@H]2CN(S(=O)(=O)c3cccc(C(F)(F)F)c3)C[C@H]21 [Example 254, N^2-neopentyl-N^1-((3aS,4R,6aR)-2-{[3-(trifluoromethyl)phenyl]sulfonyl}octahydrocyclopenta[c]pyrrol-4-yl)-L-leucinamide] | – | 0.72 µM |

Continued, values first:

| inhibition at 10 µM | IC50 | Structure (SMILES) |
| --- | --- | --- |
| 60% | – | CC[C@H](C(=O)N[C@@H]1CC[C@H]2CN([C@@H](C)c3ccccc3)C[C@H]21)c1ccccc1 [Example 213, (2S)-2-phenyl-N-{(3aS,4R,6aR)-2-[(1S)-1-phenylethyl]octahydrocyclopenta[c]pyrrol-4-yl}butanamide] |
| – | 2.05 µM | CC(C)C[C@@H](C(=O)N[C@H]1CC[C@@H]2CN(Cc3ccccc3)C[C@@H]21)N(C)C(=O)OC(C)(C)C [Example 222, tert-butyl(S)-1-((3aR,4S,6aS)-2-benzyloctahydrocyclopenta[c]pyrrol-4-ylamino)-4-methyl-1-oxopentan-2-yl(methyl)carbamate] |
| – | 4.06 µM | CC(C)(C)C[C@H](NC(=O)OC(C)(C)C)C(=O)N[C@H]1CC[C@@H]2CN(Cc3ccccc3)C[C@@H]21 [Example 226, tert-butyl(S)-1-((3aR,4S,6aS)-2-benzyloctahydrocyclopenta[c]pyrrol-4-ylamino)-4,4-dimethyl-1-oxopentan-2-ylcarbamate] |
| – | 2.09 µM | O=C(N[C@H]1CC[C@@H]2CN(Cc3ccccc3)C[C@@H]21)C(c1ccc(F)cc1)c1ccc(F)cc1 [Example 228, N-[(3aR,4S,6aS)-2-benzyloctahydrocyclopenta[c]pyrrol-4-yl]-2,2-bis(4-fluorophenyl)acetamide] |
| – | 7.4 µM | CC(C)(C)OC(=O)N[C@H](C(=O)N[C@@H]1CC[C@H]2CN(Cc3ccccc3)C[C@H]21)C(C)(C)C [Example 234, tert-butyl(S)-1-((3aS,4R,6aR)-2-benzyloctahydrocyclopenta[c]pyrrol-4-ylamino)-3,3-dimethyl-1-oxobutan-2-ylcarbamate] |
| – | 1.88 µM | O=C(N[C@H]1CC[C@H]2CN(Cc3cccc(C(F)(F)F)c3)C[C@H]21)C(O)C1CCCCC1 (stereo partly drawn) [Example 237, 2-cyclohexyl-2-hydroxy-N-{(3aS,4S,6aR)-2-[3-(trifluoromethyl)benzyl]octahydrocyclopenta[c]pyrrol-4-yl}acetamide] |
| – | 7.92 µM | CC(C)C[C@H](NS(C)(=O)=O)C(=O)N[C@H]1CC[C@@H]2CN(Cc3ccccc3)C[C@@H]21 [Example 242, N^1-[(3aR,4S,6aS)-2-benzyloctahydrocyclopenta[c]pyrrol-4-yl]-N^2-(methylsulfonyl)-L-leucinamide] |
| – | 8.08 µM | CC(C)C[C@H](NCC(C)(C)C)C(=O)N[C@@H]1CC[C@H]2CN(Cc3ccccc3)C[C@H]21 [Example 245, N^1-[(3aS,4R,6aR)-2-benzyloctahydrocyclopenta[c]pyrrol-4-yl]-N^2-neopentyl-L-leucinamide] |
| – | 3.62 µM | CN(C(=O)OC(C)(C)C)[C@@H](CC(C)(C)C)C(=O)N[C@H]1CC[C@@H]2CN(Cc3ccccc3)C[C@@H]21 [Example 247, tert-butyl(S)-1-((3aR,4S,6aS)-2-benzyloctahydrocyclopenta[c]pyrrol-4-ylamino)-4,4-dimethyl-1-oxopentan-2-yl(methyl)carbamate] |
| – | 1.67 µM | CN(C(=O)OC(C)(C)C)[C@@H](CC(C)(C)C)C(=O)N[C@@H]1CC[C@H]2CN(Cc3ccccc3)C[C@H]21 [Example 248, tert-butyl(S)-1-((3aS,4R,6aR)-2-benzyloctahydrocyclopenta[c]pyrrol-4-ylamino)-4,4-dimethyl-1-oxopentan-2-yl(methyl)carbamate] |
| – | 0.36 µM | CCC[C@H](NCC(C)(C)C)C(=O)N[C@H]1CC[C@@H]2CN(S(=O)(=O)c3cccc(C(F)(F)F)c3)C[C@@H]21 [Example 253, N^2-neopentyl-N^1-((3aR,4S,6aS)-2-{[3-(trifluoromethyl)phenyl]sulfonyl}octahydrocyclopenta[c]pyrrol-4-yl)-L-norvalinamide] |

Source: US8129417B2, “Substituted octahydrocyclopenta[C]pyrrol-4-amines as calcium channel blockers” (Abbott Laboratories, priority 2008, dated 2012)
